# Measurements reported in patent US8513162B2, “Halogen-containing organosulfur compound and use thereof” (Sumitomo Chemical Company, Limited, priority 2008, dated 2013).
# Tests used:
# Assay type in all cases: in vivo
# Blattalla germanica = assay: Test Example 5: filter paper with sucrose bait, Blattalla germanica; conditions: 144 h; 500 ppm active ingredient, 0.7 ml on filter paper; 2 male imagoes of Blattalla germanica; after 6 days; read-out: pest death rate
# Procedure: A formulation of any one of the present compounds (4), (5), (6), (8), (12), (15), (16), (18), (22), (23) and (24) obtained in Formulation Example 5 was diluted with water to prepare a test solution having 500 ppm of the active ingredient.
# (§1) A filter paper having a diameter of 5.5 cm was spread on the bottom of a polyethylene cup having a diameter of 5.5 cm and 0.7 ml of the test solution was added dropwise onto the filter paper. As a bait, 30 mg of sucrose was uniformly placed on the filter paper. Into the polyethylene cup, 2 male imagoes of Blattalla germanica were released and the cup was sealed with a lid. After 6 days, the number of surviving or dead Blattalla germanica was counted and the death rate of the pest was calculated.
# Culex pipiens pallens = assay: Test Example 6: Culex pipiens pallens larvae in treated water; conditions: 24 h, read-out: pest death rate
# Procedure: A formulation of any one of the present compounds (4), (5), (6), (7), (8), (9), (11), (12), (15), (16), (18), (19), (20), (21), (22), and (26) obtained in Formulation Example 5 was diluted with water to prepare a test solution having 500 ppm of the active ingredient.
# To 100 mL of ion-exchanged water, 0.7 ml of the test solution was added (active ingredient concentration: 3.5 ppm). Into the solution, 20 last-instar larvae of Culex pipiens pallens were released. After 1 day, the number of surviving or dead Culex pipiens pallens was counted and the death rate of the pest was calculated.
# Musca domestica = assay: Test Example 4: filter paper with sucrose bait, Musca domestica; conditions: 24 h, read-out: pest death rate
# Procedure: A formulation of any one of the present compounds (1), (4), (6), (7), (9), (10), (11), (12), (13), (15), (16), (17), (18), (19), (20), (21), (22), (24), (25) and (26) obtained in Formulation Example 5 was diluted with water to prepare a test solution having 500 ppm of the active ingredient.
# as §1, with “10 female” for “2 male”, “Musca domestica” for “Blattalla germanica”, “24 hours,” for “6 days,”
SMILES,pest or weed control at 500 ppm (Blattalla germanica),pest or weed control at 3.5 ppm (Culex pipiens pallens),pest or weed control at 500 ppm (Musca domestica)
"N#CC(C1CC[S+]([O-])C1)S(=O)(=O)CCC(F)(F)F (centres unmarked) [present compound (8), 2-(1-oxo-1λ^4-tetrahydrothiophen-3-yl)-2-(3,3,3-trifluoropropylsulfonyl)acetonitrile]",100%,≥ 95%,–
"N#CC(C1CCSCC1)S(=O)(=O)CCC(F)(F)C(F)(F)F (centres unmarked) [present compound (16), 2-(tetrahydrothiopyran-4-yl)-2-(3,3,4,4,4-pentafluorobutylsulfonyl)acetonitrile]",100%,≥ 95%,≥ 90%
"N#CC(CCC(F)(F)C(F)(F)F)S(=O)(=O)CC1CCCCO1 (single isomer, unassigned) [present compound (22), 5,5,6,6,6-pentafluoro-2-(tetrahydropyran-2-ylmethanesulfonyl)hexanenitrile]",100%,≥ 95%,≥ 90%
"N#CC(CCC(F)(F)C(F)(F)F)S(=O)(=O)CC1CCCO1 (centres unmarked) [present compound (18), 5,5,6,6,6-pentafluoro-2-(tetrahydrofuran-2-ylmethanesulfonyl)hexanenitrile]",100%,≥ 95%,≥ 90%
"C#CCC1CCC(CS(=O)(=O)CCC(F)(F)F)O1 (single isomer, unassigned) [present compound (24), 2-(prop-2-ynyl)-5-(3,3,3-trifluoropropanesulfonylmethyl)tetrahydrofuran]",100%,–,≥ 90%
"N#CC(C1CCSCC1)S(=O)(=O)CCC(F)(F)F (centres unmarked) [present compound (4), 2-(tetrahydrothiopyran-4-yl)-2-(3,3,3-trifluoropropylsulfonyl)acetonitrile]",100%,≥ 95%,≥ 90%
"N#CC(CC1CCC(=O)O1)S(=O)(=O)CCC(F)(F)F (centres unmarked) [present compound (13), 3-(2-oxotetrahydrofuran-5-yl)-2-(3,3,3-trifluoropropylsulfonyl)propionitrile]",–,–,≥ 90%
"N#CC(CCC(F)(F)F)S(=O)(=O)CC1CCCO1 (centres unmarked) [present compound (17), 5,5,5-trifluoro-2-(tetrahydrofuran-2-ylmethanesulfonyl)pentanenitrile]",–,–,≥ 90%
"N#CC(CC1CCOC1)S(=O)(=O)CCC(F)(F)F (centres unmarked) [present compound (11), 3-(tetrahydrofuran-3-yl)-2-(3,3,3-trifluoropropylsulfonyl)propionitrile]",–,≥ 95%,≥ 90%
"N#CC(CC1CCCCO1)S(=O)(=O)CCC(F)(F)F (centres unmarked) [present compound (12), 3-(2-tetrahydropyran-2-yl)-2-(3,3,3-trifluoropropylsulfonyl)propionitrile]",100%,≥ 95%,≥ 90%
"C#CCC1CCC(CSCCC(F)(F)F)O1 (single isomer, unassigned) [present compound (23), 2-(prop-2-ynyl)-5-(3,3,3-trifluoropropylthiomethyl)tetrahydrofuran]",100%,–,–
"COC(=O)N1CCC(C(C#N)S(=O)(=O)CCC(F)(F)C(F)(F)F)CC1 (centres unmarked) [present compound (15), 2-[N-(methoxycarbonyl)piperidin-4-yl]-2-(3,3,4,4,4-pentafluorobutylsulfonyl)acetonitrile]",100%,≥ 95%,≥ 90%
"N#CC(CCC(F)(F)C(F)(F)F)S(=O)(=O)CCC1OCCO1 (centres unmarked) [present compound (21), 5,5,6,6,6,-pentafluoro-2-[2-(1,3-dioxolan-2-yl)ethanesulfonyl]pentanenitrile]",–,≥ 95%,≥ 90%
"N#CC(C1CCS(=O)(=O)CC1)S(=O)(=O)CCC(F)(F)F (centres unmarked) [present compound (6), 2-(1,1-dioxo-1λ^4-tetrahydrothiopyran-4-yl)-2-(3,3,3-trifluoropropylsulfonyl)acetonitrile]",100%,≥ 95%,≥ 90%
"CCOC(=O)N1CCC(C(C#N)S(=O)(=O)CCC(F)(F)F)CC1 (centres unmarked) [present compound (1), 2-[N-(ethoxycarbonyl)piperidin-4-yl]-2-(3,3,3-trifluoropropylsulfonyl)acetonitrile]",–,–,≥ 90%
"N#CC(CCCC(F)(F)C(F)(F)F)S(=O)(=O)CC1CCCO1 (centres unmarked) [present compound (19), 6,6,7,7,7-pentafluoro-2-(tetrahydrofuran-2-ylmethanesulfonyl)heptanenitrile]",–,≥ 95%,≥ 90%
"N#CC(C1CCSC1)S(=O)(=O)CCC(F)(F)F (centres unmarked) [present compound (7), 2-(tetrahydrothiophen-3-yl)-2-(3,3,3-trifluoropropylsulfonyl)acetonitrile]",–,≥ 95%,≥ 90%
"COC(=O)C(CCC(F)(F)C(F)(F)F)S(=O)(=O)CC1CCCO1 (centres unmarked) [present compound (25), methyl 5,5,6,6,6-pentafluoro-2-(tetrahydrofuran-2-ylmethanesulfonyl)hexanoate]",–,–,≥ 90%
"N#CC(CC1CCCO1)S(=O)(=O)CCC(F)(F)F (centres unmarked) [present compound (10), 3-(2-tetrahydrofuran-2-yl)-2-(3,3,3-trifluoropropylsulfonyl)propionitrile]",–,–,≥ 90%
"N#CC(C1CC[S+]([O-])CC1)S(=O)(=O)CCC(F)(F)F (centres unmarked) [present compound (5), 2-(1-oxo-1λ^4-tetrahydrothiopyran-4-yl)-2-(3,3,3-trifluoropropylsulfonyl)acetonitrile]",100%,≥ 95%,–
